Results as given in patent publication US20260193295A1, “CILAGICIN COMPOUNDS AND METHODS OF USE THEREOF” (priority 2022, published 2026).
In brackets after ≈: the same amount, converted by molar mass. Positions of bridges follow the written chain, without caps; N, C: chain ends. Non-standard residues stand in square brackets, D forms with d. Residues, ends and D or L forms follow the SMILES beside them. *: point of attachment. Benzoyl(4-Ph) = O=C(c1ccc(-c2ccccc2)cc1)*; dDab = NCC[C@@H](N)C(=O)O; Dab = NCC[C@H](N)C(=O)O

Assays:
Clostridium difficile = assay: MIC assay (broth microdilution); format: cell-based; details: C. difficile HM89
Protocol: (§1) MIC assay were conducted using the protocol recommended by the Clinical and Laboratory Standards Institute.(37) Culture conditions (temperature, medium) are detailed in Table 3. All compounds were dissolved in sterile DMSO (ATCC, USA) to give a concentration of 6.4 mg/mL. Vancomycin hydrochloride was used as positive controls. Tested compounds were serially diluted across 96-well plates using a 2-fold serial dilution in a volume of 50 μL. An overnight culture of an assay strain was diluted 5,000-fold in fresh medium. 50 μL of this dilution was added into each well, giving a final volume of 100 μL in each well. Compounds were assayed at concentrations ranging from 64 μg/mL to 0.06 μg/mL. The top and bottom rows of each plate were filled with 100 μL of media to avoid edge effects. […] For Clostridium difficile plates were statically incubated under anaerobic conditions (Vinyl anaerobic chamber, 37° C., 5% H2, 5% CO2, 90% N2). For Streptococcus pneumoniae plates were statically incubated under aerobic conditions supplemented with 5% C02 (37° C.). All MICs were performed in technical duplicate (n=2) and repeated three independent times (n=3).

HEK293 cells = format: cell-based, human
Protocol: The cytotoxicity of […] analogs was tested using an MTT (3-(4,5-Dimethyl-2-thiazolyl)-2,5-diphenyl-2H-tetrazolium bromide) assay as previously described ([…] et al., 2006, […]7). HEK293 cells were seeded in a 96-well plate with a density of 5,000 cells/well and cultured in Dulbecco's Modified Eagle Medium (DMEM) supplemented with 10% fetal bovine serum, 1% Pen/Strep and 1% glutamate for 24 hours at 37° C. with 5% CO2. […] After 48 hours of incubation, the media was removed and 110 μL of freshly prepared MTT solution (0.45 mg/mL in DPBS) was added to each well. The plates were incubated for 3 hours at 37° C. with 5% C02 after which the MTT solution was removed by aspiration. […] The absorbance of each well was measured at OD570nm using a microplate reader (Infinite 200 PRO, Tecan). […] All the experiments were performed in triplicates (n=3) and repeated two independent times (n=2).

Enterococcus faecium = format: cell-based
Protocol: as §1

Staphylococcus aureus = format: cell-based
Protocol: as §1

Streptococcus agalactiae = format: cell-based
Protocol: as §1

Streptococcus pneumoniae = format: cell-based
Protocol: as §1

Streptococcus pyrogens = format: cell-based
Protocol: as §1

[1] = test system: red blood cell (5% sheep blood agar plate); format: cell-based
Protocol: The hemolytic activity of cilagicin was evaluated using a red blood cell disc diffusion assay. Cilagicin and other test compounds were dissolved in 10% DMSO to give concentrations ranging from 100 μg/mL to 12.5 μg/mL. 10% (v/v) Triton X-100 and 10% DMSO were used as positive and vehicle controls, respectively. 20 μL of each serially diluted compound was infused on a sterile disc. Infused discs were overlaid on the surface of a 5% sheep blood agar plate (Hardy diagnostics, USA) and incubated at 20° C. for 24 hours. The size of the transparent ring that appeared in the agar plate was measured to determine hemolytic activity. Experiments were performed two independent times. A representative picture was taken of one experiment.

S. aureus USA300 = assay: Neutropenic thigh infection model in mice; format: in vivo, Staphylococcus aureus; details: neutropenic mouse thigh model, S. aureus USA300, 40 mg/kg thrice daily (TID) IP, 24 hours post infection
Protocol: Mice were randomly housed in individually ventilated cages (IVC). The room was set on a twelve-hour light cycle and the temperature was set to 70° F. The humidity was set to 30%. To initiate the neutropenic model, mice were injected with 150 mg/kg and 100 mg/kg of cyclophosphamide via intraperitoneal (IP) injection on days −4 and −1, respectively. On day −1, a single colony of S. aureus USA300 was grown in 15 mL of cation adjusted Mueller Hinton (MH) broth at 37° C. with shaking overnight. On day 0, cells were centrifuged, washed twice in 0.9% sterile saline, and resuspended in sterile 0.9% saline solution to give final optical density (600 nm) of 0.1. 50 μL of bacteria suspension was injected into both thighs via intramuscular (IM) injection. This provides a challenge inoculum of approximately 1.0×10^6 CFU in each thigh in a volume of 50 μL. At 2 hours post infection, mice were given 200 μL of vehicle (10% DMSO), vancomycin (40 mg/kg, 10% DMSO) or cilagicin BP (40 mg/kg, 10% DMSO) at 2, 10, and 18 hours post infection via IP injection. Mice in the pretreatment group (n=4 mice/n=8 thighs) were humanely euthanized by CO2 narcosis to determine the starting thigh bacterial burden. […] All graphic data are expressed as data points by group and were statistically analyzed using Prism software (Prism 9). […]

S. pyrogens ATCC19615 = assay: Neutropenic thigh infection model in mice; format: in vivo, Streptococcus pyrogens; details: neutropenic mouse thigh model

Compound: CC(C)[C@@H]1NC(=O)[C@H](Cc2ccc(O)cc2)NC(=O)CNC(=O)[C@@H](CC(=O)O)NC(=O)[C@@H](CC(N)=O)NC(=O)CNC(=O)[C@H](CC(=O)O)NC(=O)[C@@H](CCN)NC(=O)[C@@H](NC(=O)[C@@H](CO)NC(=O)c2ccc(-c3ccccc3)cc2)[C@@H](C)OC(=O)[C@H](Cc2ccccc2)NC(=O)[C@H](CCN)NC1=O [Cilagicin BP] ({Benzoyl(4-Ph)}-[dS]T[dDab]DG[dN][dD]GYV[Dab]F; ester 2-C)
- MIC (Clostridium difficile): 16 µg/mL (≈ 11.1 µM)
- human cell cytotoxicity (HEK293 cells): no human cell cytotoxicity
- MIC (Enterococcus faecium): >64 µg/mL
- MIC (Staphylococcus aureus): 4 µg/mL (≈ 2.78 µM)
- antibacterial activity (MIC) in the presence of serum (Staphylococcus aureus; S. aureus, presence versus absence of serum (10% serum)): no increase in MIC
- MIC (Streptococcus agalactiae): 16 µg/mL (≈ 11.1 µM)
- MIC (Streptococcus pneumoniae): 4 µg/mL (≈ 2.78 µM)
- MIC (Streptococcus pyrogens): 1 µg/mL (≈ 0.696 µM)
- hemolytic activity [1]: no hemolytic activity
- reduction in colony forming units (CFU) compared to the vehicle control (S. aureus USA300): ~4 log10
- reduction in bacterial burden compared to the vehicle control (S. pyrogens ATCC19615; S. pyrogens ATCC19615, 40 mg/kg TID IP, 24 hours post infection): > 5 log10
- reduction of bacterial burden compared with vancomycin (S. pyrogens ATCC19615; S. pyrogens, both 40 mg/kg TID): more than a log greater reduction of bacterial burden than vancomycin
